Results: paper PMC8243516, “Inhibition of lysosomal phospholipase A2 predicts drug-induced phospholipidosis” (Journal of Lipid Research, 2021)

How the values were obtained:
[1] = ref Pubchem and chEMBL databases; cited from earlier work
phospholipidosis = phospholipidosis reported in vitro; Refs of Table 1; cited from earlier work
[2] = molecular target: T1, recombinant mouse LPLA2 (PLA2G15) (Mus musculus, UniProt Q8VEB4); test: Transacylase activity of LPLA2 (1-O-acyl-N-acetylsphingosine synthase, cell-free liposome assay); assay type: biochemical; conditions: 1-O-acyl N-acetylsphingosine synthase activity, pH 4.5, DOPC/sulfatide liposomes; read-out: LPLA2 IC50
T1 construct: purchased Proteos Inc. (Kalamazoo, MI)
T1 sequence (Q8VEB4 34-412): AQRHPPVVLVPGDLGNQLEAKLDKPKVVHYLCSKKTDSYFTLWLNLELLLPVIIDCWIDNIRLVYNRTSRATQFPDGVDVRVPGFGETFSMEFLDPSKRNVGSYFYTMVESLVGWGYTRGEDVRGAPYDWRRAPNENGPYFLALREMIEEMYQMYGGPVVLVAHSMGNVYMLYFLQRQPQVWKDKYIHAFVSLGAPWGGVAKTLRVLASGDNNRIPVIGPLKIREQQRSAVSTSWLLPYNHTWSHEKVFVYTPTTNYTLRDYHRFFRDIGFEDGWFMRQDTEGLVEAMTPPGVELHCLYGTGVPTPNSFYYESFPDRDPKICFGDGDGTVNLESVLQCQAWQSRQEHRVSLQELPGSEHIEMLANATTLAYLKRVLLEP

LPLA2 = molecular target: T2, LPLA2 (Mus musculus, UniProt Q8VEB4); test: LPLA2 thermal stability measurement (SYPRO Orange Tm); assay type: binding; conditions: N=3 ± SD
T2 construct: purchased Proteos Inc. (Kalamazoo, MI)
T2 sequence (Q8VEB4 34-412): T1 sequence (Q8VEB4 34-412)

SMILES	pKa (basic) [1]	In Vitro PLD (phospholipidosis)	IC50 [2] [µM]	(ΔTm)c-(ΔTm)d, difference in melting temperature of LPLA2 alone or in the presence of drug (LPLA2) [°C]
CN(C)CC/C=C1/c2ccccc2Sc2ccc(Cl)cc21 [Chlorprothixene]	9.76	Yes	7.78	-2.0 ± 0.1
Clc1ccc(C(OCCN2CCCCC2)c2ccccc2)cc1 (centres unmarked) [Cloperastin, 1-{2-[(4-chlorophenyl) (phenyl)methoxy]ethyl} piperidine]	8.82	Yes	40.9	0
C[C@]12C[C@H](O)[C@H]3[C@@H](CCC4=CC(=O)CC[C@@]43C)[C@@H]1CC[C@@H]2C(=O)CO [Corticosterone, (1S,2R,10S,11S,14S,15S,17S)-17-hydroxy-14-(2-hydroxyacetyl)-2,15-dimethyltetracyclo[8.7.0.0^2,^7.0^11,^15]heptadec-6-en-5-one]	-0.26	Yes	163	0
COc1cc2nc(N3CCN(C(=O)c4ccco4)C4CCCCC43)nc(N)c2cc1OC (centres unmarked) [Cyclazosin, 1-(4-amino-6,7-dimethoxy-2-quinazolinyl)-4-(2-furanylcarbonyl) decahydroquinoxaline]	9.89	Yes	30.8	0.18 ± 0.1
CN(C)CCOC(=O)C(c1ccccc1)C1(O)CCCC1 (centres unmarked) [Cyclopentolate, 2-(dimethylamino)ethyl 2-(1-hydroxycyclopentyl)-2-phenylacetate]	8.42	Yes	32.2	0.87 ± 0.6
c1ccc2c(c1)CCc1ccccc1C2 [Dibenzosuberane, 10,11-dihydro-5H-dibenzo [a, d] cycloheptene-833-48-7]	10	Yes	346	-1.94 ± 0.0
CCN(CC)CCOC(=O)C(c1ccccc1)C1CCCCC1 (centres unmarked) [Drofenine, hexahydroadiphenine]	9.21	Yes	7.29	1.50 ± 0.1
CCOC(=O)c1cncn1[C@H](C)c1ccccc1 [Etomidate, ethyl 1-[(1R)-1-phenylethyl]-1H-imidazole-5-carboxylate]	4.54	Yes	1150	-0.76 ± 0.3
O=C(COc1ccc(Cl)cc1)N1CCN(Cc2ccc3c(c2)OCO3)CC1 [Fipexide, 1-(2-[4-chlorophenoxy]acetyl)-4-(3,4-methylenedioxybenzyl)piperazine]	6.09	Yes	17.2	-0.17 ± 0.0
O=C(O)c1ccccc1Nc1cccc(C(F)(F)F)c1 [Flufenamic acid, 2-{[3-(trifluoromethyl)phenyl]amino}benzoic acid]	-2.1	Yes	178	-0.62 ± 0.3
CC(=O)N1CCN(c2ccc(OCC3COC(Cn4ccnc4)(c4ccc(Cl)cc4Cl)O3)cc2)CC1 (centres unmarked) [Ketoconazole, 1-[4-(4-{[2-(2,4-dichlorophenyl)-2-(1H-imidazole-1-ylmethyl)-1,3-dioxolan-4-yl]methoxy}phenyl)piperazin-1-yl]ethan-1-one]	6.75	Yes	39	0.42 ± 0.8
